Measurements taken from US20020137929A1, “1 - (3-heterocyclylphenyl) isothiourea, -isourea, -guanidine and -amidine herbicidal agents” (Intellectual Property Department, BASF Aktiengesellschaft, priority 1998, published 2002).

Tests used:
[1] = test system: SAGPY (Arrowhead (Pygmaea)); assay: Preemergence weed control under flooded paddy conditions; assay type: in vivo, Sagittaria pygmaea; details: rated 3-4 weeks after treatment
Procedure, shortened: (§1)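 Silt loam, seeds in top 0.5 cm; flood held 1.5-3 cm; test cpd as acetone/water 50/50 into flood water, ~0.0313-0.500 kg/ha a.i.; greenhouse 3-4 wk; visual 0-9 score vs control.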

CYPSE (Flatsedge) = assay: as above; assay type: in vivo, Cyperus serotinus; details: rated 3-4 weeks after treatment
Procedure, shortened: as §1

CASOB (Sicklepod) = assay: Postemergence herbicidal evaluation; assay type: in vivo, Cassia obtusifolia; details: postemergence
Procedure, shortened: (§2)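 Rate range approx. 0.0156–0.500 kg/ha. Foliar application at 40 psi to ~2-week seedlings; surfactant 0.5% TWEEN 20 in 50/50 acetone/water. Evaluation 4–5 wk post-treatment by 0–9 visual injury score, means of replicate tests.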

ORYSAT (Rice, Tebonnet) = assay: Preemergence herbicidal evaluation; assay type: in vivo, Oryza sativa, (L.) Tebonnet; details: rated 4-5 weeks after treatment, rating scale 0-9
Procedure, shortened: (§3)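 Scores use a 0–9 visual scale covering stand, vigor, malformation, size and chlorosis relative to controls, rated four to five weeks after treatment. Before emergence, soil-planted seeds were sprayed with compound in aqueous acetone at roughly 0.0156–0.500 kg/ha and held in the greenhouse.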

GALAP (Galium) [2] = assay: Preemergence herbicidal evaluation; assay type: in vivo, Galium aparine; details: rated 4-5 weeks after treatment, rating scale 0-9
Procedure, shortened: as §3

[3] = test system: TRZAWR (Wheat, Winter, cv Riband); assay: Postemergence herbicidal evaluation; assay type: in vivo, Triticum aestivum; details: postemergence
Procedure, shortened: as §2

GALAP (Galium) [4] = assay: Postemergence herbicidal evaluation; assay type: in vivo, Galium aparine; details: postemergence
Procedure, shortened: as §2

[5] = test system: GLXMAW (Soybean, Williams); assay: Postemergence herbicidal evaluation; assay type: in vivo, Glycine max, (L.) Merr. cv Williams; details: postemergence
Procedure, shortened: as §2

[6] = test system: ECHORC (Watergrass (Calif.)); assay: Preemergence weed control under flooded paddy conditions; assay type: in vivo, Echinochloa oryzoides; details: rated 3-4 weeks after treatment
Procedure, shortened: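 Herbicidal effect is scored visually on a 0-9 scale against an untreated control, three to four weeks after compounds are pipetted into the flood water (1.5 to 3 cm deep) over seeds planted in silt loam at 0.5 cm depth. Rates: about 0.0313 to 0.500 kg/ha.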

AMBEL (Ragweed, Common) = assay: Postemergence herbicidal evaluation; assay type: in vivo, Ambrosia artemisifolia; details: postemergence
Procedure, shortened: as §2

SETVI (Foxtail, Green) = assay: Preemergence herbicidal evaluation; assay type: in vivo, Setaria viridis; details: rated 4-5 weeks after treatment, rating scale 0-9
Procedure, shortened: as §3

MOOVA (Monochoria) = assay: Preemergence weed control under flooded paddy conditions; assay type: in vivo, Monochoria vaginalis; details: rated 3-4 weeks after treatment
Procedure, shortened: as §1

Cn1c(C(F)(F)F)cc(=O)n(-c2cc(N=C3SCC(=O)N3Cc3cccc(C(F)(F)F)c3)c(Cl)cc2F)c1=O [Compound 142, 3-{4-Chloro-2-fluoro-5-{{3-[m-(trifluoromethyl)benzyl]-4-oxo-2-thiazolidinylidene}-amino}phenyl}-1-methyl-6-(trifluoromethyl)-2,4(1H,3H)-pyrimidinedione]
herbicidal effect rating, SAGPY ([1]; 0.0313 kg/ha): 0.0
herbicidal effect rating, SAGPY ([1]; 0.0625 kg/ha): 0.0
herbicidal effect rating, SAGPY ([1]; 0.1250 kg/ha): 0.0
herbicidal effect rating, SAGPY ([1]; 0.2500 kg/ha): 2.0
herbicidal effect rating, CYPSE (CYPSE (Flatsedge); 0.1250 kg/ha): 0.0
herbicidal effect rating, CYPSE (CYPSE (Flatsedge); 0.2500 kg/ha): 0.0
herbicidal rating CASOB (CASOB (Sicklepod); rate 0.0156 kg/ha): 0.0
herbicidal rating CASOB (CASOB (Sicklepod); rate 0.0313 kg/ha): 1.0
herbicidal rating CASOB (CASOB (Sicklepod); rate 0.0625 kg/ha): 3.0
Preemergence herbicidal rating ORYSAT (ORYSAT (Rice, Tebonnet); rate 0.0156 kg/ha): 0.0
Preemergence herbicidal rating ORYSAT (ORYSAT (Rice, Tebonnet); rate 0.0313 kg/ha): 0.0
Preemergence herbicidal rating ORYSAT (ORYSAT (Rice, Tebonnet); rate 0.0625 kg/ha): 0.0
Preemergence herbicidal rating ORYSAT (ORYSAT (Rice, Tebonnet); rate 0.1250 kg/ha): 1.0
Preemergence herbicidal rating ORYSAT (ORYSAT (Rice, Tebonnet); rate 0.2500 kg/ha): 0.0
Preemergence herbicidal rating GALAP (GALAP (Galium) [2]; rate 0.0156 kg/ha): 0.0
Preemergence herbicidal rating GALAP (GALAP (Galium) [2]; rate 0.0313 kg/ha): 0.0
Preemergence herbicidal rating GALAP (GALAP (Galium) [2]; rate 0.0625 kg/ha): 0.0
Preemergence herbicidal rating GALAP (GALAP (Galium) [2]; rate 0.1250 kg/ha): 0.0
Preemergence herbicidal rating GALAP (GALAP (Galium) [2]; rate 0.2500 kg/ha): 9.0
herbicidal rating TRZAWR ([3]; rate 0.0156 kg/ha): 2.5
herbicidal rating TRZAWR ([3]; rate 0.0313 kg/ha): 2.5
herbicidal rating TRZAWR ([3]; rate 0.0625 kg/ha): 2.5
herbicidal rating GALAP (GALAP (Galium) [4]; rate 0.0156 kg/ha): 0.0
herbicidal rating GALAP (GALAP (Galium) [4]; rate 0.0313 kg/ha): 1.0
herbicidal rating GALAP (GALAP (Galium) [4]; rate 0.0625 kg/ha): 1.0
herbicidal rating GLXMAW ([5]; rate 0.0156 kg/ha): 5.0
herbicidal rating GLXMAW ([5]; rate 0.0313 kg/ha): 5.0
herbicidal rating GLXMAW ([5]; rate 0.0625 kg/ha): 5.5
herbicidal effect rating, ECHORC ([6]; 0.0313 kg/ha): 4.0
herbicidal effect rating, ECHORC ([6]; 0.0625 kg/ha): 5.0
herbicidal effect rating, ECHORC ([6]; 0.1250 kg/ha): 7.0
herbicidal effect rating, ECHORC ([6]; 0.2500 kg/ha): 7.0
herbicidal rating AMBEL (AMBEL (Ragweed, Common); rate 0.0156 kg/ha): 9.0
herbicidal rating AMBEL (AMBEL (Ragweed, Common); rate 0.0313 kg/ha): 9.0
herbicidal rating AMBEL (AMBEL (Ragweed, Common); rate 0.0625 kg/ha): 9.0
Preemergence herbicidal rating SETVI (SETVI (Foxtail, Green); rate 0.0156 kg/ha): 0.0
Preemergence herbicidal rating SETVI (SETVI (Foxtail, Green); rate 0.0313 kg/ha): 1.0
Preemergence herbicidal rating SETVI (SETVI (Foxtail, Green); rate 0.0625 kg/ha): 0.0
Preemergence herbicidal rating SETVI (SETVI (Foxtail, Green); rate 0.1250 kg/ha): 2.0
Preemergence herbicidal rating SETVI (SETVI (Foxtail, Green); rate 0.2500 kg/ha): 7.0
herbicidal effect rating, MOOVA (MOOVA (Monochoria); 0.0313 kg/ha): 6.0
herbicidal effect rating, MOOVA (MOOVA (Monochoria); 0.0625 kg/ha): 7.0
herbicidal effect rating, MOOVA (MOOVA (Monochoria); 0.1250 kg/ha): 9.0
herbicidal effect rating, MOOVA (MOOVA (Monochoria); 0.2500 kg/ha): 8.0

Cn1c(C(F)(F)F)cc(=O)n(-c2cc(N=C3SCC(=O)N3Cc3ccccc3Cl)c(Cl)cc2F)c1=O [Compound 143]
herbicidal effect rating, SAGPY ([1]; 0.0313 kg/ha): 0.0
herbicidal effect rating, SAGPY ([1]; 0.0625 kg/ha): 0.0
herbicidal effect rating, SAGPY ([1]; 0.1250 kg/ha): 0.0
herbicidal effect rating, SAGPY ([1]; 0.2500 kg/ha): 5.0
herbicidal effect rating, CYPSE (CYPSE (Flatsedge); 0.0313 kg/ha): 0.0
herbicidal effect rating, CYPSE (CYPSE (Flatsedge); 0.0625 kg/ha): 0.0
herbicidal effect rating, CYPSE (CYPSE (Flatsedge); 0.1250 kg/ha): 0.0
herbicidal effect rating, CYPSE (CYPSE (Flatsedge); 0.2500 kg/ha): 0.0
herbicidal rating CASOB (CASOB (Sicklepod); rate 0.0156 kg/ha): 0.0
herbicidal rating CASOB (CASOB (Sicklepod); rate 0.0313 kg/ha): 1.0
herbicidal rating CASOB (CASOB (Sicklepod); rate 0.0625 kg/ha): 3.0
Preemergence herbicidal rating ORYSAT (ORYSAT (Rice, Tebonnet); rate 0.0313 kg/ha): 0.0
Preemergence herbicidal rating ORYSAT (ORYSAT (Rice, Tebonnet); rate 0.0625 kg/ha): 0.0
Preemergence herbicidal rating ORYSAT (ORYSAT (Rice, Tebonnet); rate 0.1250 kg/ha): 0.0
Preemergence herbicidal rating ORYSAT (ORYSAT (Rice, Tebonnet); rate 0.2500 kg/ha): 1.0
Preemergence herbicidal rating GALAP (GALAP (Galium) [2]; rate 0.0313 kg/ha): 0.0
Preemergence herbicidal rating GALAP (GALAP (Galium) [2]; rate 0.0625 kg/ha): 0.0
Preemergence herbicidal rating GALAP (GALAP (Galium) [2]; rate 0.1250 kg/ha): 1.0
Preemergence herbicidal rating GALAP (GALAP (Galium) [2]; rate 0.2500 kg/ha): 0.0
herbicidal rating TRZAWR ([3]; rate 0.0156 kg/ha): 1.5
herbicidal rating TRZAWR ([3]; rate 0.0313 kg/ha): 2.0
herbicidal rating TRZAWR ([3]; rate 0.0625 kg/ha): 3.5
herbicidal rating GALAP (GALAP (Galium) [4]; rate 0.0156 kg/ha): 0.0
herbicidal rating GALAP (GALAP (Galium) [4]; rate 0.0313 kg/ha): 1.0
herbicidal rating GALAP (GALAP (Galium) [4]; rate 0.0625 kg/ha): 3.0
herbicidal rating GLXMAW ([5]; rate 0.0156 kg/ha): 4.0
herbicidal rating GLXMAW ([5]; rate 0.0313 kg/ha): 4.5
herbicidal rating GLXMAW ([5]; rate 0.0625 kg/ha): 5.0
herbicidal effect rating, ECHORC ([6]; 0.0313 kg/ha): 5.0
herbicidal effect rating, ECHORC ([6]; 0.0625 kg/ha): 7.0
herbicidal effect rating, ECHORC ([6]; 0.1250 kg/ha): 9.0
herbicidal effect rating, ECHORC ([6]; 0.2500 kg/ha): 9.0
herbicidal rating AMBEL (AMBEL (Ragweed, Common); rate 0.0156 kg/ha): 9.0
herbicidal rating AMBEL (AMBEL (Ragweed, Common); rate 0.0313 kg/ha): 9.0
herbicidal rating AMBEL (AMBEL (Ragweed, Common); rate 0.0625 kg/ha): 9.0
Preemergence herbicidal rating SETVI (SETVI (Foxtail, Green); rate 0.0313 kg/ha): 0.0
Preemergence herbicidal rating SETVI (SETVI (Foxtail, Green); rate 0.0625 kg/ha): 0.0
Preemergence herbicidal rating SETVI (SETVI (Foxtail, Green); rate 0.1250 kg/ha): 3.0
Preemergence herbicidal rating SETVI (SETVI (Foxtail, Green); rate 0.2500 kg/ha): 3.0
herbicidal effect rating, MOOVA (MOOVA (Monochoria); 0.0313 kg/ha): 5.0
herbicidal effect rating, MOOVA (MOOVA (Monochoria); 0.0625 kg/ha): 6.0
herbicidal effect rating, MOOVA (MOOVA (Monochoria); 0.1250 kg/ha): 6.0
herbicidal effect rating, MOOVA (MOOVA (Monochoria); 0.2500 kg/ha): 6.0
